{"source": "the kinase profiling compilation of Christmann-Franck et al. (2016)", "assay_in_all_cases": "KINOMEscan competition binding", "conditions_in_all_cases": "compound 10.0 µM", "key": {"BLK (human)": {"target": "BLK (human) (UniProt P51451)"}, "DYRK1B (human)": {"target": "DYRK1B (human) (UniProt Q9Y463)"}, "NEK6 (human)": {"target": "NEK6 (human) (UniProt Q9HC98)", "sequence (Q9HC98 whole entry, looked up)": "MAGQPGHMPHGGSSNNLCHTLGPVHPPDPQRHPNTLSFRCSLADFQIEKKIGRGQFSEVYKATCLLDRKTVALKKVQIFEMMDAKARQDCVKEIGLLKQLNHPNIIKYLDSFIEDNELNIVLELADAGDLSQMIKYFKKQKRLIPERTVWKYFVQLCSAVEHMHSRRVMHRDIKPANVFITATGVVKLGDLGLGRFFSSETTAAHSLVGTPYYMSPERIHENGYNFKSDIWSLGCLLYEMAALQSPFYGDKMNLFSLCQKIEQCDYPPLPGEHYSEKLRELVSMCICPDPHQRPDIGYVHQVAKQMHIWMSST"}, "FER (human)": {"target": "FER (human) (UniProt P16591)"}, "PAK6 (human)": {"target": "PAK6 (human) (UniProt Q9NQU5)"}, "NEK9 (human)": {"target": "NEK9 (human) (UniProt Q8TD19)"}, "TNIK (human)": {"target": "TNIK (human) (UniProt Q9UKE5)"}, "ICK (human)": {"target": "ICK (human) (UniProt Q9UPZ9)", "sequence (Q9UPZ9 whole entry, looked up)": "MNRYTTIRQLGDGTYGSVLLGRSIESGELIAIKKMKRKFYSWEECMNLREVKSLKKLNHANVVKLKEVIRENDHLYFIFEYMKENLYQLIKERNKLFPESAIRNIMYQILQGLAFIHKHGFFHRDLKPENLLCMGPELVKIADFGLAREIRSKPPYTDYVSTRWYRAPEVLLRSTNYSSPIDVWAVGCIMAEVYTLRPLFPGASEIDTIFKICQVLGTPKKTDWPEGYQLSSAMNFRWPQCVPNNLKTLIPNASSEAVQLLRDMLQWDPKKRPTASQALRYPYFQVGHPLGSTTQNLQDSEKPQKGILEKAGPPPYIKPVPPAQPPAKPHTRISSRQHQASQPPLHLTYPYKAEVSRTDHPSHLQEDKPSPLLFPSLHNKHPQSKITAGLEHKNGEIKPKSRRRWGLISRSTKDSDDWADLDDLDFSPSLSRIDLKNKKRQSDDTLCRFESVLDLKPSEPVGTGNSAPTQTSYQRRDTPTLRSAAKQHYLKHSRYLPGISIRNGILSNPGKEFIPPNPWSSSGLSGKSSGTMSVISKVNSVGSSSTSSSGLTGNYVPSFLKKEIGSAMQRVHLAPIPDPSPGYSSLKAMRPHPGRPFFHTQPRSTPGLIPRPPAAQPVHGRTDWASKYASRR"}, "MAP2K6 (human)": {"target": "MAP2K6 (human) (UniProt P52564)"}, "MAP2K1 (human)": {"target": "MAP2K1 (human) (UniProt Q02750)"}, "MAPK1 (human)": {"target": "MAPK1 (human) (UniProt P28482)"}, "AURKB (human)": {"target": "AURKB (human) (UniProt Q96GD4)"}, "SGK3 (human)": {"target": "SGK3 (human) (UniProt Q96BR1)"}, "PRKAA1 (human)": {"target": "PRKAA1 (human) (UniProt Q13131)"}, "MARK2 (human)": {"target": "MARK2 (human) (UniProt Q7KZI7)"}, "PRKX (human)": {"target": "PRKX (human) (UniProt P51817)"}, "TRPM6 (human)": {"target": "TRPM6 (human) (UniProt Q9BX84)"}, "DDR2 (human)": {"target": "DDR2 (human) (UniProt Q16832)"}, "RPS6KA1 KD1 (human)": {"target": "RPS6KA1 KD1 (human) (UniProt Q15418)"}, "CDC42BPA (human)": {"target": "CDC42BPA (human) (UniProt Q5VT25)", "sequence (Q5VT25 whole entry, looked up)": "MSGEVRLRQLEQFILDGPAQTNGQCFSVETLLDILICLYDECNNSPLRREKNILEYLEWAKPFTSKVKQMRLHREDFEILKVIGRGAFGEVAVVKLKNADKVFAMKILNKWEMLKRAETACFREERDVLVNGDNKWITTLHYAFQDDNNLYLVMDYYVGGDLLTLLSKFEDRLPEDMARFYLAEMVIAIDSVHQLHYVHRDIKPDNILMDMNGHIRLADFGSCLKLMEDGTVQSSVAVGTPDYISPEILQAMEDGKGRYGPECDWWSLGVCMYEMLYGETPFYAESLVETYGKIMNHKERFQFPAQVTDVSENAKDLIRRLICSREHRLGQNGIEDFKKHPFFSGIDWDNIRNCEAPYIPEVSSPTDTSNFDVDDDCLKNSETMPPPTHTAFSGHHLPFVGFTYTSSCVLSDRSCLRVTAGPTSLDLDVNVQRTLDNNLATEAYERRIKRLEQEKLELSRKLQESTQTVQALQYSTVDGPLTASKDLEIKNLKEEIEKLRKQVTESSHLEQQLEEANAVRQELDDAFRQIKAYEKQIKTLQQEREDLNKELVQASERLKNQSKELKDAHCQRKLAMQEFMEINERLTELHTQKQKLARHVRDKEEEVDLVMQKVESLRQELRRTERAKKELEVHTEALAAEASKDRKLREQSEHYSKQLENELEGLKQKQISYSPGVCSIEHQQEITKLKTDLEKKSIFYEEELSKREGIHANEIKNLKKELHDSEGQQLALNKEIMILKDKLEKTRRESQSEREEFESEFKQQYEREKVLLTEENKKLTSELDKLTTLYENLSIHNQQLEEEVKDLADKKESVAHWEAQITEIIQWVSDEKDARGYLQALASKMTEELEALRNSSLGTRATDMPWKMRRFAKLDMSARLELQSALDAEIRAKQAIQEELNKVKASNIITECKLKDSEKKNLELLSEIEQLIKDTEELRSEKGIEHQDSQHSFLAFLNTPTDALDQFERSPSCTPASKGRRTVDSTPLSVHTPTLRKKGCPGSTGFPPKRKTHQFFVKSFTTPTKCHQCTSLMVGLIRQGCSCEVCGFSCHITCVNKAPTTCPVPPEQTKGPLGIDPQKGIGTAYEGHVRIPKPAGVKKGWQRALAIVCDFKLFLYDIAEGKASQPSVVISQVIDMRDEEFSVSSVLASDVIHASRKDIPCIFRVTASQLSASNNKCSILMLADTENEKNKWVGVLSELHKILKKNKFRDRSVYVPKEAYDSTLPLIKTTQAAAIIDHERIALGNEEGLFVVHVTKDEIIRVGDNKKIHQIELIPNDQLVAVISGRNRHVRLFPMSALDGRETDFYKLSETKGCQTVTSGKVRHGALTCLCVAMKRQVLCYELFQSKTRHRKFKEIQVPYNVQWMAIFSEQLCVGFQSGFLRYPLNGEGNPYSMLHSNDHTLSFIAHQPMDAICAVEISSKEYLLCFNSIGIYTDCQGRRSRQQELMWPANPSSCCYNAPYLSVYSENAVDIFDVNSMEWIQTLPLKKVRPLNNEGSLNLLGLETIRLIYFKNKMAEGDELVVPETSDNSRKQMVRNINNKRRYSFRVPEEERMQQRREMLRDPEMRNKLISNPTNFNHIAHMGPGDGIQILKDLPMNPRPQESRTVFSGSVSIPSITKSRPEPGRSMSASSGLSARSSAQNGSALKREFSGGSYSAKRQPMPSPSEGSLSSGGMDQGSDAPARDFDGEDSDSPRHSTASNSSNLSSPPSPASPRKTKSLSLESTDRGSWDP"}, "CAMK1G (human)": {"target": "CAMK1G (human) (UniProt Q96NX5)"}, "CHUK (human)": {"target": "CHUK (human) (UniProt O15111)"}, "NTRK3 (human)": {"target": "NTRK3 (human) (UniProt Q16288)", "sequence (Q16288 whole entry, looked up)": "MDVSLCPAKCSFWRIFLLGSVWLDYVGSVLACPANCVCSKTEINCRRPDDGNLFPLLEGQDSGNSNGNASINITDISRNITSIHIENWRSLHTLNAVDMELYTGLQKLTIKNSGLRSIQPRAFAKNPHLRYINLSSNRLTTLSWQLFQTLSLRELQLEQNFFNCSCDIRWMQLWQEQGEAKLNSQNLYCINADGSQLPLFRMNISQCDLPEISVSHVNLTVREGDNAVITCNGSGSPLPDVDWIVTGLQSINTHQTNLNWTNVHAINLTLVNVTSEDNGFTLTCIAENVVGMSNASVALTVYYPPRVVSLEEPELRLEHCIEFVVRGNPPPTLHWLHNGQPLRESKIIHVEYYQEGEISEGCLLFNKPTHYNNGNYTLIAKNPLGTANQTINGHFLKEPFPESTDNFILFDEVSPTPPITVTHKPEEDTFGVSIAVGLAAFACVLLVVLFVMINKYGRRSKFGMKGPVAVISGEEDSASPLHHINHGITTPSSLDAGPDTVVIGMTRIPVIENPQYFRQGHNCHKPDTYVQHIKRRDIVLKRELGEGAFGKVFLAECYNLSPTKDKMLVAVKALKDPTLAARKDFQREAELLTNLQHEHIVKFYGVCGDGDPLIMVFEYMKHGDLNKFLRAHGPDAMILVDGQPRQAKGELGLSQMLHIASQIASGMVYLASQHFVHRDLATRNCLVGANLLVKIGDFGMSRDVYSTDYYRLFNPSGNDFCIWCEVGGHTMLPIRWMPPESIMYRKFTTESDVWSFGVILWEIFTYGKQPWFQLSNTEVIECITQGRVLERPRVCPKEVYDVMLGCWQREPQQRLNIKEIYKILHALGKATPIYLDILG"}, "MAP2K2 (human)": {"target": "MAP2K2 (human) (UniProt P36507)", "sequence (P36507 whole entry, looked up)": "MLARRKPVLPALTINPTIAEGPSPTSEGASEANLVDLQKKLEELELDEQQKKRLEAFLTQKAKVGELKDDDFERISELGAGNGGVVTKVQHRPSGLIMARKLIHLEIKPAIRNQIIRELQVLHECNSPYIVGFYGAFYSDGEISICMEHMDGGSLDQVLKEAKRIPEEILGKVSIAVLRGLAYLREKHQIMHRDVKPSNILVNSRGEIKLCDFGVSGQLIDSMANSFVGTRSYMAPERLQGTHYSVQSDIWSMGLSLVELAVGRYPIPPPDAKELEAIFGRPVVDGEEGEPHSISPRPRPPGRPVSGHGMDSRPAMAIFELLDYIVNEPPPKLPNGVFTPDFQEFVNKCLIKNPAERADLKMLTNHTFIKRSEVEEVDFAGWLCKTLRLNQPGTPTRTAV"}, "STK3 (human)": {"target": "STK3 (human) (UniProt Q13188)"}, "[1]": {"tested_on": "FLT3 (human), P36888 [D835Y]"}, "TNK1 (human)": {"target": "TNK1 (human) (UniProt Q13470)"}, "AKT2 (human)": {"target": "AKT2 (human) (UniProt P31751)", "sequence (P31751 whole entry, looked up)": "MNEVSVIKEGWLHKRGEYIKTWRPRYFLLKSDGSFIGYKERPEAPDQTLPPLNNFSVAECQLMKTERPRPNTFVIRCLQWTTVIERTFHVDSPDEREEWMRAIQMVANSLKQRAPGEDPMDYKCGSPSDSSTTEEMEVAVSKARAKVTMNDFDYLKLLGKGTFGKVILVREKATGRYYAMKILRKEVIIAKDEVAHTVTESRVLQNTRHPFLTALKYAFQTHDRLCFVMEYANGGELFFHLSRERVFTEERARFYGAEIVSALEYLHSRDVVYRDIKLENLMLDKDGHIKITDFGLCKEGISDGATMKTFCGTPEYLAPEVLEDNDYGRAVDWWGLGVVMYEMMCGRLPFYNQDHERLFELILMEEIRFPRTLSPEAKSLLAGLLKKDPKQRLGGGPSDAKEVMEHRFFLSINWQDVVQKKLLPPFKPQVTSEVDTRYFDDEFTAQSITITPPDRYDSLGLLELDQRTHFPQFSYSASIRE"}, "CPK1 (P.falciparum)": {"tested_on": "CPK1 (P.falciparum)"}, "ERN1 (human)": {"target": "ERN1 (human) (UniProt O75460)"}, "FES (human)": {"target": "FES (human) (UniProt P07332)"}, "PAK1 (human)": {"target": "PAK1 (human) (UniProt Q13153)"}, "PIK3CD (human)": {"target": "PIK3CD (human) (UniProt O00329)"}, "NUAK2 (human)": {"target": "NUAK2 (human) (UniProt Q9H093)", "sequence (Q9H093 whole entry, looked up)": "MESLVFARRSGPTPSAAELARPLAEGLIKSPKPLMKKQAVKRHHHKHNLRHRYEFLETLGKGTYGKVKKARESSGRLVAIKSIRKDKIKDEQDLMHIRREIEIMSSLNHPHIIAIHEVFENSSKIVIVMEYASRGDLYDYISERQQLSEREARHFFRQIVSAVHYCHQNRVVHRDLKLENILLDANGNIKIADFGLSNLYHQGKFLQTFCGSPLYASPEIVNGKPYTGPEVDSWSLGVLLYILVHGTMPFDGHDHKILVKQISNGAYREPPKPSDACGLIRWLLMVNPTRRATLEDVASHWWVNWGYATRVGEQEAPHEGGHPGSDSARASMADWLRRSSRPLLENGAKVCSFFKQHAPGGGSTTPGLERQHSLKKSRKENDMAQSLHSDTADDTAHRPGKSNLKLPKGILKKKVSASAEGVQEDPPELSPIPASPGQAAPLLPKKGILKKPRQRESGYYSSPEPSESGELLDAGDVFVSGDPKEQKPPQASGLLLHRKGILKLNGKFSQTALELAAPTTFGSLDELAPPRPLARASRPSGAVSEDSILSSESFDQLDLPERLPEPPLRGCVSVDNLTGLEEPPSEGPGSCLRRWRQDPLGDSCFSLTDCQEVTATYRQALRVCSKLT"}, "BMPR1B (human)": {"target": "BMPR1B (human) (UniProt O00238)"}, "ZAP70 (human)": {"target": "ZAP70 (human) (UniProt P43403)"}, "LATS2 (human)": {"target": "LATS2 (human) (UniProt Q9NRM7)"}, "LIMK2 (human)": {"target": "LIMK2 (human) (UniProt P53671)"}, "EPHA4 (human)": {"target": "EPHA4 (human) (UniProt P54764)"}, "MAPK3 (human)": {"target": "MAPK3 (human) (UniProt P27361)"}, "MAPK15 (human)": {"target": "MAPK15 (human) (UniProt Q8TD08)"}}}
{"molecule": "CNC(=O)Nc1ccc(-c2nc(N3CC4CCC(C3)O4)c3cnn(C4CCC5(CC4)OCCO5)c3n2)cc1", "values": [{"measurement": "kinase still bound, per cent of control", "setting": "BLK (human)", "result": 96, "unit": "%"}, {"measurement": "kinase still bound, per cent of control", "setting": "DYRK1B (human)", "result": 100, "unit": "%"}, {"measurement": "kinase still bound, per cent of control", "setting": "NEK6 (human)", "result": 90, "unit": "%"}, {"measurement": "kinase still bound, per cent of control", "setting": "FER (human)", "result": 100, "unit": "%"}, {"measurement": "kinase still bound, per cent of control", "setting": "PAK6 (human)", "result": 100, "unit": "%"}, {"measurement": "kinase still bound, per cent of control", "setting": "NEK9 (human)", "result": 100, "unit": "%"}, {"measurement": "kinase still bound, per cent of control", "setting": "TNIK (human)", "result": 100, "unit": "%"}, {"measurement": "kinase still bound, per cent of control", "setting": "ICK (human)", "result": 87, "unit": "%"}, {"measurement": "kinase still bound, per cent of control", "setting": "MAP2K6 (human)", "result": 95, "unit": "%"}, {"measurement": "kinase still bound, per cent of control", "setting": "MAP2K1 (human)", "result": 100, "unit": "%"}, {"measurement": "kinase still bound, per cent of control", "setting": "MAPK1 (human)", "result": 87, "unit": "%"}, {"measurement": "kinase still bound, per cent of control", "setting": "AURKB (human)", "result": 92, "unit": "%"}, {"measurement": "kinase still bound, per cent of control", "setting": "SGK3 (human)", "result": 100, "unit": "%"}, {"measurement": "kinase still bound, per cent of control", "setting": "PRKAA1 (human)", "result": 94, "unit": "%"}, {"measurement": "kinase still bound, per cent of control", "setting": "MARK2 (human)", "result": 100, "unit": "%"}, {"measurement": "kinase still bound, per cent of control", "setting": "PRKX (human)", "result": 100, "unit": "%"}, {"measurement": "kinase still bound, per cent of control", "setting": "TRPM6 (human)", "result": 100, "unit": "%"}, {"measurement": "kinase still bound, per cent of control", "setting": "DDR2 (human)", "result": 100, "unit": "%"}, {"measurement": "kinase still bound, per cent of control", "setting": "RPS6KA1 KD1 (human)", "result": 100, "unit": "%"}, {"measurement": "kinase still bound, per cent of control", "setting": "CDC42BPA (human)", "result": 100, "unit": "%"}, {"measurement": "kinase still bound, per cent of control", "setting": "CAMK1G (human)", "result": 100, "unit": "%"}, {"measurement": "kinase still bound, per cent of control", "setting": "CHUK (human)", "result": 100, "unit": "%"}, {"measurement": "kinase still bound, per cent of control", "setting": "NTRK3 (human)", "result": 93, "unit": "%"}, {"measurement": "kinase still bound, per cent of control", "setting": "MAP2K2 (human)", "result": 100, "unit": "%"}, {"measurement": "kinase still bound, per cent of control", "setting": "STK3 (human)", "result": 97, "unit": "%"}, {"measurement": "kinase still bound, per cent of control", "setting": "[1]", "result": 99, "unit": "%"}, {"measurement": "kinase still bound, per cent of control", "setting": "TNK1 (human)", "result": 78, "unit": "%"}, {"measurement": "kinase still bound, per cent of control", "setting": "AKT2 (human)", "result": 100, "unit": "%"}, {"measurement": "kinase still bound, per cent of control", "setting": "CPK1 (P.falciparum)", "result": 86, "unit": "%"}, {"measurement": "kinase still bound, per cent of control", "setting": "ERN1 (human)", "result": 93, "unit": "%"}, {"measurement": "kinase still bound, per cent of control", "setting": "FES (human)", "result": 100, "unit": "%"}, {"measurement": "kinase still bound, per cent of control", "setting": "PAK1 (human)", "result": 100, "unit": "%"}, {"measurement": "kinase still bound, per cent of control", "setting": "PIK3CD (human)", "result": 5.7, "unit": "%"}, {"measurement": "kinase still bound, per cent of control", "setting": "NUAK2 (human)", "result": 100, "unit": "%"}, {"measurement": "kinase still bound, per cent of control", "setting": "BMPR1B (human)", "result": 83, "unit": "%"}, {"measurement": "kinase still bound, per cent of control", "setting": "ZAP70 (human)", "result": 83, "unit": "%"}, {"measurement": "kinase still bound, per cent of control", "setting": "LATS2 (human)", "result": 76, "unit": "%"}, {"measurement": "kinase still bound, per cent of control", "setting": "LIMK2 (human)", "result": 88, "unit": "%"}, {"measurement": "kinase still bound, per cent of control", "setting": "EPHA4 (human)", "result": 100, "unit": "%"}, {"measurement": "kinase still bound, per cent of control", "setting": "MAPK3 (human)", "result": 97, "unit": "%"}, {"measurement": "kinase still bound, per cent of control", "setting": "MAPK15 (human)", "result": 25, "unit": "%"}]}
{"molecule": "CCc1nc(-c2cccc(C)c2)c(-c2ccnc(NC(=O)c3ccccc3)c2)s1", "values": [{"measurement": "kinase still bound, per cent of control", "setting": "BLK (human)", "result": 17, "unit": "%"}, {"measurement": "kinase still bound, per cent of control", "setting": "DYRK1B (human)", "result": 90, "unit": "%"}, {"measurement": "kinase still bound, per cent of control", "setting": "NEK6 (human)", "result": 100, "unit": "%"}, {"measurement": "kinase still bound, per cent of control", "setting": "FER (human)", "result": 60, "unit": "%"}, {"measurement": "kinase still bound, per cent of control", "setting": "PAK6 (human)", "result": 98, "unit": "%"}, {"measurement": "kinase still bound, per cent of control", "setting": "NEK9 (human)", "result": 100, "unit": "%"}, {"measurement": "kinase still bound, per cent of control", "setting": "TNIK (human)", "result": 5.5, "unit": "%"}, {"measurement": "kinase still bound, per cent of control", "setting": "ICK (human)", "result": 100, "unit": "%"}, {"measurement": "kinase still bound, per cent of control", "setting": "MAP2K6 (human)", "result": 79, "unit": "%"}, {"measurement": "kinase still bound, per cent of control", "setting": "MAP2K1 (human)", "result": 86, "unit": "%"}, {"measurement": "kinase still bound, per cent of control", "setting": "MAPK1 (human)", "result": 96, "unit": "%"}, {"measurement": "kinase still bound, per cent of control", "setting": "AURKB (human)", "result": 100, "unit": "%"}, {"measurement": "kinase still bound, per cent of control", "setting": "SGK3 (human)", "result": 100, "unit": "%"}, {"measurement": "kinase still bound, per cent of control", "setting": "PRKAA1 (human)", "result": 81, "unit": "%"}, {"measurement": "kinase still bound, per cent of control", "setting": "MARK2 (human)", "result": 100, "unit": "%"}, {"measurement": "kinase still bound, per cent of control", "setting": "PRKX (human)", "result": 100, "unit": "%"}, {"measurement": "kinase still bound, per cent of control", "setting": "TRPM6 (human)", "result": 100, "unit": "%"}, {"measurement": "kinase still bound, per cent of control", "setting": "DDR2 (human)", "result": 16, "unit": "%"}, {"measurement": "kinase still bound, per cent of control", "setting": "RPS6KA1 KD1 (human)", "result": 89, "unit": "%"}, {"measurement": "kinase still bound, per cent of control", "setting": "CDC42BPA (human)", "result": 82, "unit": "%"}, {"measurement": "kinase still bound, per cent of control", "setting": "CAMK1G (human)", "result": 97, "unit": "%"}, {"measurement": "kinase still bound, per cent of control", "setting": "CHUK (human)", "result": 100, "unit": "%"}, {"measurement": "kinase still bound, per cent of control", "setting": "NTRK3 (human)", "result": 96, "unit": "%"}, {"measurement": "kinase still bound, per cent of control", "setting": "MAP2K2 (human)", "result": 90, "unit": "%"}, {"measurement": "kinase still bound, per cent of control", "setting": "STK3 (human)", "result": 97, "unit": "%"}, {"measurement": "kinase still bound, per cent of control", "setting": "TNK1 (human)", "result": 88, "unit": "%"}, {"measurement": "kinase still bound, per cent of control", "setting": "AKT2 (human)", "result": 80, "unit": "%"}, {"measurement": "kinase still bound, per cent of control", "setting": "CPK1 (P.falciparum)", "result": 22, "unit": "%"}, {"measurement": "kinase still bound, per cent of control", "setting": "ERN1 (human)", "result": 100, "unit": "%"}, {"measurement": "kinase still bound, per cent of control", "setting": "FES (human)", "result": 97, "unit": "%"}, {"measurement": "kinase still bound, per cent of control", "setting": "PAK1 (human)", "result": 76, "unit": "%"}, {"measurement": "kinase still bound, per cent of control", "setting": "PIK3CD (human)", "result": 100, "unit": "%"}, {"measurement": "kinase still bound, per cent of control", "setting": "NUAK2 (human)", "result": 100, "unit": "%"}, {"measurement": "kinase still bound, per cent of control", "setting": "BMPR1B (human)", "result": 100, "unit": "%"}, {"measurement": "kinase still bound, per cent of control", "setting": "ZAP70 (human)", "result": 100, "unit": "%"}, {"measurement": "kinase still bound, per cent of control", "setting": "LATS2 (human)", "result": 90, "unit": "%"}, {"measurement": "kinase still bound, per cent of control", "setting": "LIMK2 (human)", "result": 94, "unit": "%"}, {"measurement": "kinase still bound, per cent of control", "setting": "EPHA4 (human)", "result": 94, "unit": "%"}, {"measurement": "kinase still bound, per cent of control", "setting": "MAPK3 (human)", "result": 98, "unit": "%"}, {"measurement": "kinase still bound, per cent of control", "setting": "MAPK15 (human)", "result": 100, "unit": "%"}]}
